Test results reported in article PMC8330735 (Journal of Enzyme Inhibition and Medicinal Chemistry, 2021).
Like-named read-outs stand apart in the source and are kept apart here.

Legend:
[1] = test system: carrageenan-induced rat paw oedema; assay: Carrageenan-induced rat paw oedema test; assay type: in vivo; conditions: compounds and celecoxib 50 mg/kg, ibuprofen and indomethacin 20 mg/kg; for Mean oedema thickness 1h: 1 h after carrageenan; for Mean oedema thickness 1h / Mean oedema thickness 2h / Mean oedema thickness 3h / Mean oedema thickness 4h / Mean oedema thickness 5h / Mean oedema thickness 24h / Mean oedema thickness 0h: mean ± SEM, n = 5; for Mean oedema thickness 2h: 2 h after carrageenan; for Mean oedema thickness 3h: 3 h after carrageenan; for Mean oedema thickness 4h: 4 h after carrageenan; for Mean oedema thickness 5h: 5 h after carrageenan; for Mean oedema thickness 24h: 24 h after carrageenan; for Mean oedema thickness 0h: before carrageenan (0 h); for Average oedema inhibition%: from area under the curve of all time points
Method: The rats were divided into nine groups (n = 5/group). All tested compounds were suspended in 1% Tween-80. Group 1, controls, were given the vehicle (1% Tween80, 10 ml/kg). […] The rats were given the drugs 1 h before the injection of carrageenan solution (1% in 0.9% NaCl, 0.1 ml) (Sigma Aldrich, USA) in the sub-planter tissue of the right hind paw. The paw thickness (mm) was measured using a calliper before (0 h) and after carrageenan injection at 1, 2, 3, 4, 5 and 24 h. The inhibition of oedema thickness was calculated using the following formula (control– drug/control) × 100.

[2] = test system: NO production in LPS-activated RAW 264.7 macrophages; assay: NO production in LPS-activated RAW 264.7 macrophages (DAF-FM); assay type: cell-based; conditions: Mus musculus, RAW264.7; LPS 1 µg/mL activated RAW 264.7
Method: HCA7 colorectal cancer cell line was obtained from Sigma. […] Louis, MO) containing 10% heat-inactivated foetal bovine serum (HI-FBS) (Gibco, USA), 100 μg/mL streptomycin (Invitrogen, USA), and […] penicillin (Invitrogen, USA)[40]. HCA7 and RAW 264.7 cells were cultured in Dulbecco's minimal essential media (DMEM, Invitrogen) containing 10% HI-FBS, sodium pyruvate (1 mM), penicillin ([…]), and streptomycin (100 mg/m)[41]^,[42]. […] Molecular Probes, USA). Briefly, RAW 264.7 cells were cultured in black 96-well plates (200,000 cells/mL, 100 µl/well) for 24 h. […] The fluorescence intensity, which is directly proportional to NO levels, was quantified, as detailed in our previous study. IC50 values were calculated from the dose–response curves.

[3] = test system: ROS production in LPS-activated RAW 264.7 macrophages; assay: ROS production in LPS-activated RAW 264.7 macrophages (DCFH-DA); assay type: cell-based; conditions: Mus musculus, RAW264.7; LPS 1 µg/mL activated RAW 264.7
Method: HCA7 colorectal cancer cell line was obtained from Sigma. […] Louis, MO) containing 10% heat-inactivated foetal bovine serum (HI-FBS) (Gibco, USA), 100 μg/mL streptomycin (Invitrogen, USA), and […] penicillin (Invitrogen, USA)[40]. HCA7 and RAW 264.7 cells were cultured in Dulbecco's minimal essential media (DMEM, Invitrogen) containing 10% HI-FBS, sodium pyruvate (1 mM), penicillin ([…]), and streptomycin (100 mg/m)[41]^,[42]. […] The cells were cultured, incubated with the different test compounds, and activated with LPS (1 µg/mL) as detailed above. […] IC50 values were calculated from the dose–response curves.

[4] = test system: HCT116 cells; assay: MTS cell viability assay HCT116; assay type: cell-based; conditions: Homo sapiens, HCT-116, 48 h, cell line scarcely expressing COX-2
Method: (§1) Human colorectal cancer cell lines, HCT116 and HT29, and RAW 264.7 macrophages were obtained from ATCC (Manassas, VA). HCA7 colorectal cancer cell line was obtained from Sigma. HT29 and HCT116 cells were cultured in McCoy's 5 A medium (Sigma Aldrich, St. Louis, MO) containing 10% heat-inactivated foetal bovine serum (HI-FBS) (Gibco, USA), 100 μg/mL streptomycin (Invitrogen, USA), and […] penicillin (Invitrogen, USA)[40]. HCA7 and RAW 264.7 cells were cultured in Dulbecco's minimal essential media (DMEM, Invitrogen) containing 10% HI-FBS, sodium pyruvate (1 mM), penicillin ([…]), and streptomycin (100 mg/m)[41]^,[42].
(§2) Cells were cultured in 96‐well plates for 48 h and then treated with serum-free media containing different concentrations of the tested compounds (12.5, 25, 50, 100 and 150 µM). After 48 h., MTS reagent (Promega) was added as directed by the manufacturer, and then, the absorbance was measured at 495 nm. The absorbance is proportional to the number of viable cells. IC50 was calculated from the dose-response curves as described previously[45] using GraphPad Prism 8 software (GraphPad Software, San Diego, CA).

[5] = test system: HT29 cells; assay: MTS cell viability assay HT29; assay type: cell-based; conditions: Homo sapiens, HT-29, 48 h, cell line moderately expressing COX-2
Method: as §1, §2

[6] = test system: HCA7 cells; assay: MTS cell viability assay HCA7; assay type: cell-based; conditions: Homo sapiens, HCA-7, 48 h, cell line highly expressing COX-2
Method: as §1, §2

[7] = test system: stomach ulceration in rats; assay: Gastric acute ulcerogenic activity; conditions: rat, n = 5; for Ulcer Index (UI): UI = UN + US + UP×10^−1
Method: (§3) The rats from the previous experiment were fasted for 12 h., followed by the administration of additional doses of the selected compounds or the two references for two consecutive days. Six hrs after the last treatment, the animals were sacrificed, and their stomachs were removed, washed with saline solution (0.9%) and examined for ulceration using a magnifying lens. The ulcer scores were estimated according to the method prescribed by Kulkarni and as detailed in our previous studies[36–38]. The following scores were individually assigned to each lesion: normal coloured stomach, 0; red colouration, 0.5; spot ulcers, 1; haemorrhagic streaks, 1.5; ulcer >3 but <5 mm, 2; and ulcers >5 mm, 3.

[8] = molecular target: T1, ovine COX-1 (Ovis aries, UniProt P05979); assay: In vitro COX-1 inhibitory assay (colorimetric Cayman kit)
T1 sequence (P05979 25-600): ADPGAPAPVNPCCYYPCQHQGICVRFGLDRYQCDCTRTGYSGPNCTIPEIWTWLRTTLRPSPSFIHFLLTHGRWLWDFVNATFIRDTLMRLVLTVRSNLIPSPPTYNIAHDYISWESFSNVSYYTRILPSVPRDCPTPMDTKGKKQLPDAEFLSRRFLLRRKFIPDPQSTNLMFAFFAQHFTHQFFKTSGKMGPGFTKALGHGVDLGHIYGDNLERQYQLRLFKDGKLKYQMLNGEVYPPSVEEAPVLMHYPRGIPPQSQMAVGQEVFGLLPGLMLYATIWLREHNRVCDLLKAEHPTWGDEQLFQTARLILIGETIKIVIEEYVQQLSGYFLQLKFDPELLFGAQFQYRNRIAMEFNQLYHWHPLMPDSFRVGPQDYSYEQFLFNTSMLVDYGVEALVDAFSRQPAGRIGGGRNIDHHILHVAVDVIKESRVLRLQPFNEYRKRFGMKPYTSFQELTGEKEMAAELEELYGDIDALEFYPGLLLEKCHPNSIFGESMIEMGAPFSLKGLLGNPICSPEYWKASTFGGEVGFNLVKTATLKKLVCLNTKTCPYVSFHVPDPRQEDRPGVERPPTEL
Method: (§4) All the newly synthesised compounds were tested for their ability to inhibit COX-1 and COX-2 enzymes using a screening assay method.

[9] = molecular target: T2, human recombinant COX-2 (Homo sapiens, UniProt P35354); assay: In vitro COX-2 inhibitory assay (colorimetric Cayman kit); conditions: for Selectivity Index (SI): COX-1 IC50/COX-2 IC50
T2 sequence (P35354 18-604): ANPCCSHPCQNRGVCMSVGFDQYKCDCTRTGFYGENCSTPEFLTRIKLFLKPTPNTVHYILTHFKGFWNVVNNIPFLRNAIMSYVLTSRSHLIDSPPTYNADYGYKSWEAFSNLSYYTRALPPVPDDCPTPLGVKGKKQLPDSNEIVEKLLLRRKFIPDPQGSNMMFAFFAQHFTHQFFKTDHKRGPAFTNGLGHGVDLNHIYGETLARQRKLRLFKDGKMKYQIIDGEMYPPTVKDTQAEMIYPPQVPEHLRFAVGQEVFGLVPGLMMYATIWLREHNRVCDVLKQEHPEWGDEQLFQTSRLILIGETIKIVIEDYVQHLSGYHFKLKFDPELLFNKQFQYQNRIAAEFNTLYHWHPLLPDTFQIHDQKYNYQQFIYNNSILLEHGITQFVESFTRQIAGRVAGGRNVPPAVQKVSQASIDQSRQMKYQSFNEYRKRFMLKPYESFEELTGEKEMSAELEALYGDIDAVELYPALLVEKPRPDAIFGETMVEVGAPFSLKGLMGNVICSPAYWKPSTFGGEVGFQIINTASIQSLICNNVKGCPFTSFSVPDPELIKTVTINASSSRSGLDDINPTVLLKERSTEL
Method: as §4

[10] = test system: acetic acid-induced writhing in mice; assay: Acetic acid induced writhing test; assay type: in vivo; conditions: 50 mg/kg p.o., 1 h prior acetic acid i.p., within 30 min
Method: The number of writhes, manifested as extension of hind legs, constriction of abdomen, or turning of trunk was recorded within 30 min.

[11] = test system: stomach ulceration in rats; conditions: rat, in vivo, 2 days
Method: as §3

IC50 [2] [µM]	IC50 [3] [µM]	IC50 [4] [µM]	IC50 [5] [µM]	IC50 [8] [µM]	IC50 [9] [µM]	Selectivity Index (SI) [9]	melting point [°C]	Compound	Mean oedema thickness 1h [1] [mm]	Mean oedema thickness 2h [1] [mm]	Mean oedema thickness 3h [1] [mm]	Mean oedema thickness 4h [1] [mm]	Mean oedema thickness 5h [1] [mm]	Mean oedema thickness 24h [1] [mm]	Mean oedema thickness 0h [1] [mm]	Average oedema inhibition% [1] [%]	IC50 [6] [µM]	Average Ulcer number [7]	Lesion Incidence (%) [7] [%]	Number of rats with ulcer [7]	further results
31.5 ± 1.08	29.7 ± 1.07	75.35 ± 0.1	15.42 ± 0.06	12.68 ± 0.11	0.04 ± 0.08	317.00	–	CN1c2ccccc2C(=O)N(NC(=O)Cc2c[nH]c3ccccc23)C1c1ccc(Cl)cc1 (stereo not shown) [4a, N-(2-(4-chlorophenyl)-1-methyl-4-oxo-1,4-dihydroquinazolin-3(2H)-yl)-2-(1H-indol-3-yl)acetamide]	2.67 ± 0.24	2.90 ± 0.33	2.14 ± 0.25	2.04 ± 0.24	1.39 ± 0.06	0.54 ± 0.21	0.00 ± 0.00	33.40	137.3 ± 0.08	1.6	60	3	–
32.2 ± 1.32	24.5 ± 2.06	> 150	66.67 ± 0.07	6.93 ± 0.15	0.07	99.00	239 to 243	CN1c2ccccc2C(=O)N(NC(=O)Cc2c[nH]c3ccccc23)C1c1ccc([N+](=O)[O-])cc1 (stereo not shown) [4b, 2-(1 h-indol-3-yl)-N-(1-methyl-2-(4-nitrophenyl)-4-oxo-1,4dihydroquinazolin-3(2H)-yl)acetamide]	1.39 ± 0.09	1.89 ± 0.25	1.70 ± 0.17	1.14 ± 0.22	1.42 ± 0.28	0.16 ± 0.08	0.00 ± 0.00	49.47	> 150	0.8	20	1	Ulcer Index (UI) [7]: 3
13 ± 1.36	16.2 ± 1.3	> 150	> 150	15.4 ± 0.17	0.04	359.74	235 to 240	O=C(CSc1nc2ccccc2c(=O)n1NC(=O)Cc1ccccc1)NNC(=O)c1ccccc1 [14c, N-(2-((2-(2-benzoylhydrazinyl)-2-oxoethyl)thio)-4-oxoquinazolin-3(4H)-yl)-2-phenylacetamide]	3.02 ± 0.35	2.89 ± 0.13	2.42 ± 0.18	2.37 ± 0.19	2.34 ± 0.23	0.57 ± 0.09	0.00 ± 0.00	31.86	> 150	0.8	40	2	Ulcer Index (UI) [7]: 5.3
–	–	53.77 ± 0.05	5.82 ± 0.38	–	–	–	–	Cc1ccc(-c2cc(C(F)(F)F)nn2-c2ccc(S(N)(=O)=O)cc2)cc1 [Celecoxib, reference compound]	1.27 ± 0.07	1.51 ± 0.07	1.49 ± 0.14	1.39 ± 0.12	1.19 ± 0.08	0.53 ± 0.12	0.00 ± 0.00	47.60	51.36 ± 0.04	–	–	–	Number of writhes [10]: 29.20 writhes; Average Ulcer number [11]: 0.2; Lesion Incidence (%) [11]: 20%; Number of rats with ulcer [11]: 1
